Assay results: US4372948A, “Derivative of saccharide and physiologically active agent containing the same” (Kureha Kagaku Kogyo Kabushiki Kaisha, priority 1980, dated 1983)

What was measured:
in vivo = conditions: mouse, in vivo, po, mice, 7 days observation, read-out: LD50, acute oral toxicity
level of blood sugar = experiment: Anti-hyperglycemia activity (reduction of blood sugar level); assay type: in vivo, rat (Wistar, streptozotocin); conditions: oral, 300 mg/kg
Description: A group of Wistar rats to which at first streptozotocin was interperitoneally administered at a rate of 60 mg/kg and of which the positivity of glycosuria was confirmed after a week of the administration and to which regular insulin was further administered and of which the reduction of levels of glucose in urine and blood was once confirmed, however, of which hyperglycemia and hyperglycosuria were again confirmed after a few days was chosen and used as model animals of glycosuria in the following test. After orally administering each of the present compounds to the model animals at a dose of 300 mg/kg body weight, as a solution or dispersion in distilled water, the blood was collected two times, respectively after 3 and 6 hours of the administration.

blood pressure = experiment: Anti-hypertension activity (reduction of blood pressure); assay type: in vivo, rat (spontaneous hypertension); conditions: oral, 300 mg/kg
Description: Rats of spontaneous hypertension were orally administered with each of the present compounds as a solution or dispersion in distilled water at a dose rate of 300 mg/kg body weight. After 3 and 6 hours of the administration, the blood pressure of each rat was determined, and the difference between the above-determined value and the value just before the administeration was used as the index of the activity of reducing the blood pressure of the compound.

Sarcoma-180 = experiment: Anti-tumour activity against Sarcoma-180; assay type: in vivo, mouse (ICR-JCL); conditions: Mus musculus, Sarcoma-180, po, 600 h, 10 times every other day, tumour weight on 25th day, read-out: Antitumour activity, inhibiting rate (I.R.)
Description: Sarcoma-180 was transplanted into the axillary part of ICR-JCL mice at a rate of 1×10^6 cells/animal, and after 24 hours of transplantation, each of the present compounds as a solution or dispersion in sterilized physiological saline solution was orally administered to each of the transplanted mice 10 times every other day at a dose of 500 mg/kg/time. On 25th day of the transplantation, tumour node(s) were extirpated from all the mice to determine the weight of the tumour nodes.
Antitumour activity (activity of inhibiting the proliferation of the transplanted sarcoma) of each of the present compounds was derived by the following formula and shown in Table 6:
Antitumour activity (Inhibiting rate, I.R.)=(1-T/C)×100(%).
T represents the total weight of tumour nodes of the group of mice transplanted and administered with the present compound, and
C represents the total weight of tumour nodes of the group of mice transplanted, however, not administered with any agents.

total cholesterol = experiment: Anti-hyperlipemia activity, total cholesterol in blood; assay type: in vivo, rabbit (Japanese white male); conditions: oral, 300 mg/kg once; for Reduction of cholesterol level after 3 hrs.: negative = raising
Description: (§1) Japanese white male rabbits were fed for 3 months with a solid diet containing 1% of cholesterol taken ad lib, and after confirming the raised lipid content of the serum of the rabbits, they were utilized as model animals suffering from experimental arteriosclerosis. Each of the present compounds was administered orally as a solution or dispersion in distilled water to the experimental animals of each group at a dose rate of 300 mg/kg once, and blood samples were taken at a predetermined time interval from the auricular vein of each animal. The content of cholesterol in the blood specimen was traced as the time passed by, with an enzymatic method, and the content of beta-lipoprotein in the same blood specimen was traced with a colorimetry. Each value in Table 7 is the difference between the level just before administration and the level after 3 or 6 hours of the administration.

beta-lipoprotein = experiment: Anti-hyperlipemia activity, beta-lipoprotein in blood; assay type: in vivo, rabbit (Japanese white male); conditions: oral, 300 mg/kg once
Description: as §1

carrageenin edema = experiment: Anti-Carrageenin edema activity; assay type: in vivo, rat; conditions: Rattus norvegicus, po, 1000 mg/kg once, read-out: I.R. against carrageenin edema
Description: After orally administering each of the present compounds forcibly to each group of rats, composed of 10 animals, as a solution or dispersion in distilled water at a dose of 1000 mg/kg once, 0.1 ml of an aqueous dispersion of 1% carrageenin in aqueous physiological saline solution was injected into the foot pad of the right hind leg of the administered animal following Van Arman et al. (1963). Thereafter, the thickness of the foot pad was measured at a time interval to find the rate of inhibiting of the swelling of the foot pad according to the following formula:
(§2) Rate of inhibition (I.R.) (%)=(1-T/C)×100
T means the average volume of the foot pad of the animals administered with one of the present compounds and carrageenin, and
C means that of the animal not administered with the present compound, however, administered with carrageenin.

cotton pellet granuloma = experiment: Anti-granuloma activity (cotton pellet); assay type: in vivo, rat; conditions: Rattus norvegicus, po, 192 h, 7 days, read-out: I.R. against cotton pellet edema
Description: Following the method of Winter et al. (1963), each two cotton wool pellets, each weighing 30±1 mg, were implanted into the back of each rats of groups of rats, each group consisting of 6 animals, at the positions of mutually symmetrical concerning the median line of the rat. To these groups of the thus operated rats, the present compounds were respectively administered orally and forcibly as a solution or dispersion in distilled water for 7 continuous days, once a day at a dose of 1000 mg/kg/day. On 8th day of the implantation, the granuloma was extirpated and the dry weight of the granuloma was measured, the rate of inhibiting the proliferation of granuloma being obtained as in (5-1) being shown in Table 8.

exudation = experiment: Anti-exudation activity (air pouch, croton oil); assay type: in vivo, rat; conditions: Rattus norvegicus, po, 144 h, 5 days, read-out: I.R. against exudation
Description: Following the method of Baris et al. (1965), air was injected subcutaneously into the back of groups of rats, each group consisting of 6 animals to make an air pouch, and 0.5 ml of sesame oil containing 1% by weight of croton oil was injected into the air pouch. Each of the present compounds was orally administered forcibly to each of the groups of rats as a solution or dispersion in distilled water at a dose rate of 1000 mg/kg/day for continued five days. The amount of liquid exudated into the air pouch was measured on 6th day of the operation. The rate of inhibiting the exudation of the liquid was obtained by the same manner as in (5-2) and the results are shown also in Table 8.

[1] = test system: pseudo-escaping reaction to tail pressure; experiment: Analgetic activity against mechanical stimulation of pressure; assay type: in vivo, mouse (ICR female); conditions: oral, 1000 mg/kg
acetic acid writhing = experiment: Analgetic activity against chemical stimulation of acetic acid (writhing); assay type: in vivo, mouse (ICR female); conditions: Mus musculus, po, 30 min before 0.6% acetic acid, read-out: I.R. of writhing
Source text: as §2
T represents the average number of writhing of the group of mice administered with the present compound and injected with acetic acid, and C represents the average number of writhing of the group of mice only injected with acetic acid (control).

[2] = test system: pyrexia (Saccharomyces cerevisiae); experiment: Anti-pyrexia activity (yeast-induced); assay type: in vivo; conditions: Rattus norvegicus, oral, read-out: Rate of inhibiting pyrexia (I.R.)
Description: Following the method of Winter et al. (1961), an aqueous dispersion of 20% by weight of Saccharomyces cerevisiae was subcutaneously injected into groups of rats, each group consisting of 6 animals, and after 10-hour fasting, 1000 mg/kg of each of the present compounds was orally administered to the rat as a solution of dispersion in distilled water, and then the rectal temperature of the rat was measured at a predetermined interval of time to find the lowest temperature.
The anti-pyrexia activity of each compound was obtained from the following formula: […]
Anti-pyrexia activity represented by the rate of inhibition (I.R.)
C2 represents the average rectal temperature of negative control (non-treatment), not injected with the yeast and not administered with the present compound,
C1 represents the average temperature of positive control, injected with the yeast and not administered with the compound and T represents the temperature of tested animals, injected with the yeast and administered with the present compound.

| Compound | LD50 at 168 h (in vivo) [mg/kg] | Reduced level of blood sugar after 3 hrs. (level of blood sugar) [mg/dL] | Reduced level of blood sugar after 6 hrs. (level of blood sugar) [mg/dL] | Reduced level of blood pressure after 3 hrs. (blood pressure) [mm Hg] | Reduced level of blood pressure after 6 hrs. (blood pressure) [mm Hg] | inhibition in vivo at 500 mg/kg (Sarcoma-180) [%] | Reduction of cholesterol level after 3 hrs. (total cholesterol) [mg/dL] | Reduction of cholesterol level after 6 hrs. (total cholesterol) [mg/dL] | Reduction of beta-lipoprotein level after 3 hrs. (beta-lipoprotein) [mg/dL] | Reduction of beta-lipoprotein level after 6 hrs. (beta-lipoprotein) [mg/dL] | inhibition in vivo at 1000 mg/kg (carrageenin edema) [%] | inhibition in vivo at 1000 mg/kg/day (cotton pellet granuloma) [%] | inhibition in vivo at 1000 mg/kg/day (exudation) [%] | Pseudo-escapting reaction pressure [1] [mmHg] | Pseudo-escapting reaction time [1] [s] | inhibition in vivo at 1000 mg/kg (acetic acid writhing) [%] | inhibition in vivo at 1000 mg/kg [2] [%] |
| --- | --- | --- | --- | --- | --- | --- | --- | --- | --- | --- | --- | --- | --- | --- | --- | --- | --- |
| O=C(Oc1ccccc1)c1ccc(NC2OC[C@@H](O)[C@H](O)[C@H]2O)cc1 (stereo partly drawn) [Compound 8, phenyl p-aminobenzoate-N-D-xyloside] | 13500 | 106 | 140 | 18 | 20 | 53 | 6 | 46 | 128 | 144 | 21.4 | 5.6 | 15.7 | 80 | 39 | 20 | 47 |
| O=C(Oc1ccccc1)c1ccc(NC2O[C@H](CO)[C@@H](O[C@@H]3O[C@H](CO)[C@@H](O)[C@H](O)[C@H]3O)[C@H](O)[C@H]2O)cc1 (some centres unmarked) [Compound 9, phenyl p-aminobenzoate-N-cellobioside] | > 15000 | 85 | 121 | 25 | 28 | 40 | -1 | 40 | 126 | 136 | 3.7 | 7.9 | 18.8 | 86 | 38 | 28 | 32 |
| O=C(Oc1ccccc1)c1ccc(NC2O[C@H](CO)[C@@H](O[C@H]3O[C@H](CO)[C@@H](O[C@H]4O[C@H](CO)[C@@H](O)[C@H](O)[C@H]4O)[C@H](O)[C@H]3O)[C@H](O)[C@H]2O)cc1 (some centres unmarked) [Compound 10, phenyl p-aminobenzoate-N-maltotrioside] | 12400 | 99 | 106 | 18 | 18 | 39 | -5 | 33 | 106 | 111 | 6.6 | 19.6 | 7.5 | 86 | 36 | 30 | 41 |
| C[C@@H]1OC(Nc2cccc(C(=O)OCc3ccccc3)c2)[C@@H](O)[C@H](O)[C@@H]1O (stereo partly drawn) [Compound 11, benzyl m-aminobenzoate-N-L-fucoside] | 9700 | 75 | 88 | 21 | 25 | 40 | -1 | 50 | 98 | 109 | 22.8 | 4.4 | 11 | 74 | 35 | 17 | 29 |
